Some test systems named below: NCI/ADR-RES; DU-145; OVCAR-8; MOLT-4; SK-OV-3; A549; 786-0; A498; U-251; COLO 205; SF-295; M14; IGROV-1; ACHN; OVCAR-3; KM12; SF-268; SK-MEL-2; MDA-MB-435; HOP-92.
Holding throughout (assay): inhibition of tumour cell growth, NCI panel, 48 h

SMILES strings stand for the structures.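 Method: 48-hour compound exposure of cells in 96-well plates, five concentrations, linear interpolation of endpoints. GI50 marks 50% less growth.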 Active and inactive are the calls of the source. No stated cut-off is given here; in the data, active = GI50 up to about 1.1 µM and inactive = higher. Where only a bound is given, the exact number is not on record here.

Consider `N#Cc1cnn2cc[nH]c12`, for which the GI50 with NCI/ADR-RES, in the experiment on DU-145, with OVCAR-8, in the experiment on MOLT-4, with SK-OV-3 and with A549 was > 100 µM (inactive) each time. Further, the GI50 in the experiment with 786-0, with A498, in the experiment on U-251, with COLO 205, in the experiment with SF-295 and in the experiment on M14 was > 100 µM (inactive) each time. The GI50 in the experiment on IGROV-1, in the experiment with ACHN, in the experiment on OVCAR-3, with KM12, with SF-268 and in the experiment with SK-MEL-2 was > 100 µM (inactive) each time.
In the case of `CC(=O)OCC(OC(C)=O)C(OC(C)=O)C(OC(C)=O)C(C=NN(C(C)=O)S(=O)(=O)c1ccc(/C=C2\NC(=O)N(C)C2=O)cc1)OC(C)=O` (stereo not drawn), the GI50 is > 100 µM (inactive) in the experiment on NCI/ADR-RES; 33 µM (inactive) in the experiment with DU-145; 25.6 µM (inactive) in the experiment on OVCAR-8; 48.5 µM (inactive) with SK-OV-3; 56 µM (inactive) in the experiment with A549; 22.1 µM (inactive) in the experiment with 786-0. Further, the GI50 is 59.7 µM (inactive) in the experiment with A498; 32.1 µM (inactive) with U-251; 26.2 µM (inactive) with COLO 205; 95.9 µM (inactive) in the experiment on SF-295; 69.2 µM (inactive) in the experiment on M14; 31.6 µM (inactive) with IGROV-1. The GI50 with ACHN is 34.5 µM (inactive); with OVCAR-3, 41.4 µM (inactive); in the experiment on KM12, 42.4 µM (inactive); in the experiment with SF-268 it was 30.1 µM (inactive); in the experiment with MDA-MB-435, 36.3 µM (inactive); with SK-MEL-2, 31.5 µM (inactive).
In the case of `CCOC(=O)/C(C#N)=C/c1ccc(CO)o1`, the GI50 in the experiment with NCI/ADR-RES, in the experiment on DU-145, in the experiment on OVCAR-8, in the experiment with MOLT-4, in the experiment with SK-OV-3 and in the experiment with A549 was > 100 µM (inactive) throughout. Further, the GI50 in the experiment on 786-0, with A498, in the experiment with U-251, with COLO 205, in the experiment with SF-295 and in the experiment with M14 was > 100 µM (inactive) throughout. Further, the GI50 with IGROV-1, in the experiment with ACHN, in the experiment on OVCAR-3, in the experiment with KM12, in the experiment on SF-268 and with MDA-MB-435 was > 100 µM (inactive) in each case.
For the compound `Cc1ccnc(NC(=S)Nc2cccc(Cl)c2)c1`, the GI50 in the experiment on NCI/ADR-RES, with DU-145, in the experiment on OVCAR-8, with MOLT-4, in the experiment on SK-OV-3 and in the experiment with A549 was > 100 µM (inactive) in each case. Also, the GI50 in the experiment on 786-0, in the experiment with A498, in the experiment on U-251, with COLO 205, in the experiment with SF-295 and in the experiment with M14 was > 100 µM (inactive) throughout. For the same compound, the GI50 with IGROV-1 is 10.5 µM (inactive); in the experiment with OVCAR-3, > 100 µM (inactive); in the experiment on KM12, > 100 µM (inactive); in the experiment on SF-268, > 100 µM (inactive); in the experiment with MDA-MB-435, > 100 µM (inactive); in the experiment with SK-MEL-2, > 100 µM (inactive).
Turning to `O=C1Nc2ccccc2/C1=C1/Nc2ccccc2/C1=N\OCCOC1OCC(O)C(O)C1O` (stereo not drawn), the GI50 with NCI/ADR-RES was > 100 µM (inactive); in the experiment with HOP-92 it was > 100 µM (inactive); in the experiment on DU-145 it was > 100 µM (inactive); in the experiment with OVCAR-8 it was > 100 µM (inactive); with MOLT-4, 85.7 µM (inactive); in the experiment on SK-OV-3 it was 1.68 µM (inactive). For the same compound, the GI50 was > 100 µM (inactive) in the experiment with A549; > 100 µM (inactive) in the experiment with 786-0; > 100 µM (inactive) in the experiment with U-251; 31 µM (inactive) with COLO 205; > 100 µM (inactive) in the experiment on SF-295; 43.4 µM (inactive) with M14. The GI50 is 5.35 µM (inactive) in the experiment on IGROV-1; > 100 µM (inactive) with ACHN; > 100 µM (inactive) in the experiment on OVCAR-3; 0.453 µM (active) with KM12; > 100 µM (inactive) with SF-268; > 100 µM (inactive) with MDA-MB-435. For the same compound, in the experiment on SK-MEL-2, the GI50 is 3.49 µM (inactive).
For the compound `CN(C)CCNC(=O)c1cccc(CO)c1[N+](=O)[O-]`, the GI50 in the experiment on NCI/ADR-RES, with DU-145, in the experiment on OVCAR-8, in the experiment on MOLT-4, with SK-OV-3 and with A549 was > 100 µM (inactive) each time. Moreover, the GI50 in the experiment on 786-0, with A498, with U-251, with COLO 205, in the experiment with SF-295 and in the experiment with M14 was > 100 µM (inactive) each time. For the same compound, the GI50 with IGROV-1, with ACHN, in the experiment with OVCAR-3, with KM12, in the experiment on SF-268 and with MDA-MB-435 was > 100 µM (inactive) each time. Further, in the experiment with SK-MEL-2, the GI50 is > 100 µM (inactive).
As to `CS/C(Nc1ccccc1)=C1\C(=O)N(c2ccccc2)N=C1C`, the GI50 in the experiment on NCI/ADR-RES, with DU-145, with OVCAR-8, in the experiment on MOLT-4, in the experiment on SK-OV-3 and with A549 was > 100 µM (inactive) in each case. Besides, the GI50 was > 100 µM (inactive) with 786-0; 95.7 µM (inactive) in the experiment with A498; > 100 µM (inactive) in the experiment on U-251; > 100 µM (inactive) in the experiment with COLO 205; > 100 µM (inactive) in the experiment with M14; > 100 µM (inactive) with OVCAR-3. Further, the GI50 with KM12, in the experiment with SF-268, with MDA-MB-435 and with SK-MEL-2 was > 100 µM (inactive) in each case.
For the compound `C=C=C(C)[Si](C)(C)C`, the GI50 in the experiment on NCI/ADR-RES, in the experiment with DU-145, with OVCAR-8, with MOLT-4, in the experiment with SK-OV-3 and in the experiment on A549 was > 100 µM (inactive) in each case. The GI50 in the experiment on 786-0, in the experiment on A498, in the experiment with U-251, in the experiment on COLO 205, in the experiment on SF-295 and in the experiment with M14 was > 100 µM (inactive) each time. The GI50 is 71.1 µM (inactive) in the experiment on IGROV-1; > 100 µM (inactive) with ACHN; > 100 µM (inactive) in the experiment on OVCAR-3; > 100 µM (inactive) with KM12; > 100 µM (inactive) with SF-268; > 100 µM (inactive) with MDA-MB-435. In the experiment with SK-MEL-2, the GI50 is > 100 µM (inactive).
With `O=c1c2ccccc2nc(N/N=C/c2ccc([N+](=O)[O-])cc2)n1-c1ccccc1`, the GI50 in the experiment with NCI/ADR-RES is 13.4 µM (inactive); with DU-145, 26.9 µM (inactive); in the experiment on OVCAR-8 it was 37.8 µM (inactive); with MOLT-4, 77.3 µM (inactive); in the experiment with SK-OV-3, 18.7 µM (inactive); in the experiment with A549 it was 15.6 µM (inactive). For the same compound, the GI50 in the experiment on 786-0 was 5.37 µM (inactive); in the experiment with U-251 it was 15.1 µM (inactive); in the experiment with COLO 205 it was > 100 µM (inactive); in the experiment on SF-295, 4.35 µM (inactive); in the experiment on M14 it was 31.7 µM (inactive); with IGROV-1 it was > 100 µM (inactive). In addition, the GI50 in the experiment on ACHN was 13.3 µM (inactive); with OVCAR-3, 31.3 µM (inactive); in the experiment with KM12 it was 36.3 µM (inactive); in the experiment with SF-268 it was 12.1 µM (inactive); in the experiment on MDA-MB-435, 42.4 µM (inactive).
As for `CN(/N=C/c1cccs1)c1ccc([N+](=O)[O-])cc1[N+](=O)[O-]`, the GI50 with NCI/ADR-RES, in the experiment on DU-145, in the experiment on OVCAR-8, in the experiment on MOLT-4, in the experiment with SK-OV-3 and in the experiment with A549 was > 100 µM (inactive) throughout. Moreover, the GI50 in the experiment with 786-0, in the experiment with U-251, with COLO 205, in the experiment with SF-295, in the experiment on M14 and in the experiment on IGROV-1 was > 100 µM (inactive) in each case. The GI50 in the experiment on ACHN, with OVCAR-3, in the experiment with KM12, with SF-268 and in the experiment on MDA-MB-435 was > 100 µM (inactive) each time.
Turning to `O=C(Nc1ccccc1F)c1cc2ccc(O)cc2o/c1=N\c1cccc(F)c1`, the GI50 is 12.8 µM (inactive) in the experiment with NCI/ADR-RES; 15 µM (inactive) in the experiment with DU-145; 9.48 µM (inactive) in the experiment with OVCAR-8; 4.41 µM (inactive) in the experiment with MOLT-4; 28.1 µM (inactive) in the experiment on SK-OV-3; 7.98 µM (inactive) with A549. Moreover, the GI50 in the experiment with 786-0 was 15 µM (inactive); in the experiment with A498 it was 18.2 µM (inactive); with U-251, 12.4 µM (inactive); in the experiment on COLO 205, 29.7 µM (inactive); in the experiment with SF-295 it was 4.3 µM (inactive); in the experiment with M14 it was 15.7 µM (inactive). Moreover, the GI50 was 3.66 µM (inactive) with IGROV-1; 9.89 µM (inactive) with ACHN; 11.5 µM (inactive) in the experiment on OVCAR-3; 12.6 µM (inactive) with KM12; 19.2 µM (inactive) with SF-268; 14.8 µM (inactive) in the experiment on MDA-MB-435. Besides, the GI50 in the experiment with SK-MEL-2 is 14.3 µM (inactive).

The record behind these values is ChEMBL document CHEMBL1201862, “PubChem BioAssay data set” (2004).
